Data published in US20140170110A1, “PYRIDIN-2(1H)-ONE DERIVATIVES USEFUL AS MEDICAMENTS FOR THE TREATMENT OF MYELOPROLIFERATIVE DISORDERS, TRANSPLANT REJECTION, IMMUNE-MEDIATED AND INFLAMMATORY DISEASES” (ALMIRALL, S.A., priority 2011, published 2014).

Tests used:
Format in all cases: biochemical
human JAK3 (aa 795-1124) = target: T1, human JAK3 (aa 795-1124) (Homo sapiens, UniProt P52333); experiment: In vitro JAK kinase assay (TR-FRET), JAK3; details: catalytic domain GST-fusion; ATP 0.6 μM; poly (GT)-Biotin 140 nM; 30 minutes at room temperature
T1 construct: JAK3 (aa 795-1124); GST (N); purchased Carna Biosciences; host or cells: baculovirus expression system
T1 sequence (P52333 795-1124): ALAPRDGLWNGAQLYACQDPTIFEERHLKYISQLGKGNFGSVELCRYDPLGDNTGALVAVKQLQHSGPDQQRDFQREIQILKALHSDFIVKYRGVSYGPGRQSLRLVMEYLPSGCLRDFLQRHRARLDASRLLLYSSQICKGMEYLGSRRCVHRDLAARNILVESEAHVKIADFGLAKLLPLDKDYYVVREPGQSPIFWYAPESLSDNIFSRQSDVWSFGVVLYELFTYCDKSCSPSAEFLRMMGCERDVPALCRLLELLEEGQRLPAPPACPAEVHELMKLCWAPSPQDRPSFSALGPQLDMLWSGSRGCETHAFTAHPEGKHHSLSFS
Description: (§1) Compounds were screened for their ability to inhibit JAK1, JAK2 and JAK3 using the assays as indicated below.
(§2) The enzymatic activity was assayed using as substrate a biotinylated peptide, poly (GT)-Biotin (CisBio). […] The degree of phosphorylation was detected by TR-FRET (time-resolved fluorescence energy transfer).
(§3) The enzymatic reactions took place for 30 minutes at room temperature. […] Incubate for 3 h and read on Victor 2V spectrofluorometer (PerkinElmer) set to read fluorescence resonance energy transfer.

human JAK2 (aa 826-1132) = target: T2, human JAK2 (aa 826-1132) (Homo sapiens, UniProt O60674); experiment: In vitro JAK kinase assay (TR-FRET), JAK2; details: catalytic domain GST-fusion; ATP 0.2 μM; poly (GT)-Biotin 20 nM; 30 minutes at room temperature
T2 construct: JAK2 (aa 826-1132); GST (N); purchased Carna Biosciences; host or cells: baculovirus expression system
T2 sequence (O60674 826-1132): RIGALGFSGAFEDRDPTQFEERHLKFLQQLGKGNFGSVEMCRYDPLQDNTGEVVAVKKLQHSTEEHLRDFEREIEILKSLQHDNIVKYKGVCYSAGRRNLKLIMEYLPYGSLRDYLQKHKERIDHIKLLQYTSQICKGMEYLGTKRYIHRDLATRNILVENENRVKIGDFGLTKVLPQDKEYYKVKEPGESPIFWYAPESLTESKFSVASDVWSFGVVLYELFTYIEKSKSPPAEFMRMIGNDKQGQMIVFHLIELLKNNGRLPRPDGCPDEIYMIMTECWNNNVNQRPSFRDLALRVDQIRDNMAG
Description: as §1, §2, §3

human JAK1 (aa 850-1154) = target: T3, human JAK1 (aa 850-1154) (Homo sapiens, UniProt P23458); experiment: In vitro JAK kinase assay (TR-FRET), JAK1; details: catalytic domain GST-fusion; ATP 3 μM; poly (GT)-Biotin 60 nM; 30 minutes at room temperature
T3 construct: human JAK1 (aa 850-1154); GST (N); purchased Carna Biosciences; host or cells: baculovirus expression system
T3 sequence (P23458 850-1154): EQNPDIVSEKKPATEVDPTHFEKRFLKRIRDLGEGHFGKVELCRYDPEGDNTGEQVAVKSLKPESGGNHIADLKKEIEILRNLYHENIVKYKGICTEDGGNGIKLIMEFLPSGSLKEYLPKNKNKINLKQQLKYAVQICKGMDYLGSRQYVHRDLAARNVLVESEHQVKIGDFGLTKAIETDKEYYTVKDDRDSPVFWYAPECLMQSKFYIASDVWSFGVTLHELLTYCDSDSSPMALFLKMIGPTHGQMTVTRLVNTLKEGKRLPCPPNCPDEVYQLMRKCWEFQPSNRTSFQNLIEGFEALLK
Description: as §1, §2, §3

IC50 (human JAK3 (aa 795-1124)) [nM] | IC50 (human JAK2 (aa 826-1132)) [nM] | IC50 (human JAK1 (aa 850-1154)) [nM] | SMILES
< 100 | < 100 | 100 to 1000 | O=c1[nH]cccc1Nc1ncc2[nH]c(=O)n([C@@H]3CCCC[C@@H]3CO)c2n1 (relative stereo) [Example 21, 9-(cis-2-(Hydroxymethyl)cyclohexyl)-2-(2-oxo-1,2-dihydropyridin-3-ylamino)-7H-purin-8(9H)-one]
< 100 | < 100 | > 1000 | O=c1[nH]cccc1Nc1nc(N2CCOCC2)c2[nH]c(=O)n(C3CCOCC3)c2n1 [Example 50, 6-Morpholino-2-(2-oxo-1,2-dihydropyridin-3-ylamino)-9-(tetrahydro-2H-pyran-4-yl)-7H-purin-8(9H)-one]
< 100 | < 100 | 100 to 1000 | O=c1[nH]cccc1Nc1ncc2[nH]c(=O)n(C3CCSCC3)c2n1 [Example 12, 2-(2-Oxo-1,2-dihydropyridin-3-ylamino)-9-(tetrahydro-2H-thiopyran-4-yl)-7H-purin-8(9H)-one]
< 100 | < 100 | 100 to 1000 | O=c1[nH]cccc1Nc1nc2c(cc1F)[nH]c(=O)n2C1CCOCC1 [Example 49, 6-Fluoro-5-(2-oxo-1,2-dihydropyridin-3-ylamino)-3-(tetrahydro-2H-pyran-4-yl)-1H-imidazo[4,5-b]pyridin-2(3H)-one]
< 100 | < 100 | < 100 | O=c1[nH]cccc1Nc1ncc2[nH]c(=O)n(C3CCCCC3)c2n1 [Example 14, 9-Cyclohexyl-2-(2-oxo-1,2-dihydropyridin-3-ylamino)-7H-purin-8(9H)-one]
< 100 | < 100 | < 100 | O=c1[nH]cc(C(F)F)cc1Nc1ncc2[nH]c(=O)n(C3CCOCC3)c2n1 [Example 5, 2-(5-(Difluoromethyl)-2-oxo-1,2-dihydropyridin-3-ylamino)-9-(tetrahydro-2H-pyran-4-yl)-7H-purin-8(9H)-one]
< 100 | < 100 | 100 to 1000 | O=c1[nH]cccc1Nc1ncc2[nH]c(=O)n(C3CCOCC3)c2n1 [Example 1, 2-(2-Oxo-1,2-dihydropyridin-3-ylamino)-9-(tetrahydro-2H-pyran-4-yl)-7H-purin-8(9H)-one]
100 to 1000 | < 100 | 100 to 1000 | CS(=O)(=O)C[C@H]1CC[C@H](n2c(=O)[nH]c3cnc(Nc4ccc[nH]c4=O)nc32)CC1 [Example 39, 9-((1r,4r)-4-(Methylsulfonylmethyl)cyclohexyl)-2-(2-oxo-1,2-dihydropyridin-3-ylamino)-7H-purin-8(9H)-one]
< 100 | < 100 | 100 to 1000 | O=c1[nH]cccc1Nc1ncc2[nH]c(=O)n([C@@H]3CC=Cc4ccccc43)c2n1 [Example 31, (R)-9-(1,2-Dihydronaphthalen-1-yl)-2-(2-oxo-1,2-dihydropyridin-3-ylamino)-7H-purin-8(9H)-one]
< 100 | < 100 | 100 to 1000 | O=c1[nH]cccc1Nc1ncc2c(n1)n(C1CCOCC1)c(=O)n2CCO [Example 46, 7-(2-Hydroxyethyl)-2-(2-oxo-1,2-dihydropyridin-3-ylamino)-9-(tetrahydro-2H-pyran-4-yl)-7H-purin-8(9H)-one]
< 100 | < 100 | 100 to 1000 | O=c1[nH]cccc1Nc1ncc2[nH]c(=O)n([C@H]3CC[C@@H](n4cncn4)CC3)c2n1 [Example 22, 9-((1s,4s)-4-(1H-1,2,4-Triazol-1-yl)cyclohexyl)-2-(2-oxo-1,2-dihydropyridin-3-ylamino)-7H-purin-8(9H)-one]
100 to 1000 | 100 to 1000 | 100 to 1000 | O=c1[nH]cncc1Nc1ncc2[nH]c(=O)n(C3CCOCC3)c2n1 [Example 51, 2-(6-Oxo-1,6-dihydropyrimidin-5-ylamino)-9-(tetrahydro-2H-pyran-4-yl)-7H-purin-8(9H)-one]
< 100 | 100 to 1000 | 100 to 1000 | O=c1[nH]nc(Cl)cc1Nc1ncc2[nH]c(=O)n(C3CCOCC3)c2n1 [Example 54, 2-(6-Chloro-3-oxo-2,3-dihydropyridazin-4-ylamino)-9-(tetrahydro-2H-pyran-4-yl)-7H-purin-8(9H)-one]
< 100 | < 100 | 100 to 1000 | N#C[C@@H]1CCCC[C@H]1n1c(=O)[nH]c2cnc(Nc3ccc[nH]c3=O)nc21 (relative stereo) [Example 23, trans-2-(8-Oxo-2-(2-oxo-1,2-dihydropyridin-3-ylamino)-7H-purin-9(8H)-yl)cyclo hexanecarbonitrile]
100 to 1000 | < 100 | > 1000 | C[C@H](c1ncc(F)cn1)n1c(=O)[nH]c2cnc(Nc3cnc[nH]c3=O)nc21 [Example 52, (R)-9-(1-(5-Fluoropyrimidin-2-yl)ethyl)-2-(6-oxo-1,6-dihydropyrimidin-5-ylamino)-7H-purin-8(9H)-one]
